The values that follow come from PMC9781003, “Two Antenna-Enriched Odorant Binding Proteins in Dioryctria abietella Tuned to General Odorants and Insecticides” (Insects, 2022).

Structures are written as SMILES. Where two headings read alike, the source gives them in different places.

For one test, the system named is DabiOBP14. Type of test: binding, Dioryctria abietella. Particulars: for Ki: competitive displacement of 1-NPN, three replicates, mean ± SE, read-out: OBP14 Ki (dissociation constant). As for the experimental part: In the binding assays, we selected 100 compounds derived from host/non-host plants and man-made insecticides widely used for the control of lepidopteran pests, representing 88 general odorants (21 esters, 21 alcohols, 14 aldehydes, 13 alkenes, seven ketones, 11 alkanes and one acid) and 12 insecticides. These compounds and N-phenyl-1-naphthylamine (1-NPN) were purchased from Aladdin and Sigma-Aldrich, with the highest available purity. They were first diluted into 100 mM, using methanol (HPLC purity grade, ≥99.9%) as a stock solution. The concentrations of the work solution for each ligand and 1-NPN were set at 1 mM.
In order to measure the binding properties of the DabiOBPs to the 100 ligands, competitive binding assays were performed on a RF5301PC fluorescence spectrophotometer (Shimadzu, Japan). The concentrations of DabiOBPs and the fluorescent probe 1-NPN were set at 2 μM. The binding of DabiOBPs to 1-NPN in 20 mM Tris-HCl buffer (pH 7.4) was measured by adding final concentrations of 2–16 μM 1-NPN. Accordingly, binding constants (K1-NPN) of the DabiOBPs and 1-NPN were calculated using GraphPad Prism 7 (GraphPad Software Inc., San Diego, CA). The binding of the DabiOBPs to various ligands was conducted by adding different concentrations of ligands (2, 4, 6, 8, 12, 16 and 20 μM) into the DabiOBP5/1-NPN (each 2 μM) or DabiOBP14/1-NPN (each 2 μM) mixtures. For the ligands replacing over a half of 1-NPN fluorescence (50%) at 20 μM, three replicates were performed. The excitation wavelength was set at 337 nm and the emission peaks were recorded at around 400 nm. The dissociation constants (Ki) of the tested ligands to DabiOBPs were computed, using the equation: Ki = [IC50]/(1 + [1-NPN]/K1-NPN), where [1-NPN] was the free concentration of 1-NPN and IC50 was the concentration of ligands replacing 50% of 1-NPN fluorescence.

A further test addresses T1, DabiOBP5 (Dioryctria abietella, UniProt A0A8E6HS34).
T1 sequence (A0A8E6HS34 19-139): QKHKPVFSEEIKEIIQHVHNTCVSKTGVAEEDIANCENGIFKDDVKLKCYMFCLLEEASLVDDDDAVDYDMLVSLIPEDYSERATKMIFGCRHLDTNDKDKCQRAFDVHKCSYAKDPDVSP
Kind of test: Competitive fluorescence binding assay with 1-NPN probe, recombinant DabiOBP5. The settings on record: for Ki: read-out: OBP5 Ki (dissociation constant), competitive displacement of 1-NPN, three replicates, mean ± SE. An excerpt: In the binding assays, we selected 100 compounds derived from host/non-host plants and man-made insecticides widely used for the control of lepidopteran pests, representing 88 general odorants (21 esters, 21 alcohols, 14 aldehydes, 13 alkenes, seven ketones, 11 alkanes and one acid) and 12 insecticides. These compounds and N-phenyl-1-naphthylamine (1-NPN) were purchased from Aladdin and Sigma-Aldrich, with the highest available purity. […] The concentrations of the work solution for each ligand and 1-NPN were set at 1 mM.
In order to measure the binding properties of the DabiOBPs to the 100 ligands, competitive binding assays were performed on a RF5301PC fluorescence spectrophotometer (Shimadzu, Japan). The concentrations of DabiOBPs and the fluorescent probe 1-NPN were set at 2 μM. […] Accordingly, binding constants (K1-NPN) of the DabiOBPs and 1-NPN were calculated using GraphPad Prism 7 (GraphPad Software Inc., San Diego, CA). […] For the ligands replacing over a half of 1-NPN fluorescence (50%) at 20 μM, three replicates were performed. The excitation wavelength was set at 337 nm and the emission peaks were recorded at around 400 nm.

The mark [1] stands for this setting: ligand at 20 μM, DabiOBP14/1-NPN each 2 μM, Tris-HCl pH 7.4, NB = no binding.
The mark [2] stands for this setting: ligand at 20 μM, DabiOBP5/1-NPN each 2 μM, Tris-HCl pH 7.4, NB = no binding, read-out: OBP5 F.D. (%) fluorescence displacement percent.
Where [3] appears, read: ligand at 20 μM, DabiOBP5/1-NPN each 2 μM, Tris-HCl pH 7.4, NB = no binding.
Setting [4] is: pH 7.4, read-out: OBP5 F.D. (%) fluorescence displacement percent.

On to `CC(C)=CCCC(C)=CC=O` (mixture of isomers) [Citral], for which the “OBP14 F.D. (%) fluorescence displacement percent” value in the test with DabiOBP14 (setting [1]) came to 32.25%. Further, at DabiOBP5 (setting [2]), the inhibition at 20 µM came out at 39%.
The matching figures for `C=CC(C)(O)CCC=C(C)CCC=C(C)C` (mixture of isomers) [Nerolidol]: 37.52% and 34.6%.
The matching figures for `CCCCCCCCCCO` [1-Decanol]: 31.32% and 31.4%.
The matching figures for `CCCCCCCCCCCCO` [1-Dodecanol]: 28.55% and 38.7%.
Regarding `CCCCCCCO` [1-Heptanol], the “OBP14 F.D. (%) fluorescence displacement percent” value in the test with DabiOBP14 (setting [1]) was found to be 39.10%. In addition, the inhibition at 20 µM on DabiOBP5 (setting [2]) came to 39.3%.
The matching figures for `CCCCCCCCCCCCCCCCO` [1-Hexadecanol]: 31.97% and 37%.
The matching figures for `CCCCCCO` [1-Hexanol]: 40.27% and 38.9%.
For `c1ccc(Nc2cccc3ccccc23)cc1` [1-NPN, N-phenyl-1-naphthylamine], the Kd worked out at 4.5 ± 0.42 µM on DabiOBP14 (2 μM protein, 2–16 μM 1-NPN, 20 mM Tris-HCl pH 7.4, read-out: K1-NPN binding constant of DabiOBP14 and 1-NPN); 7.49 ± 0.69 µM on DabiOBP5 (2 μM protein, 2–16 μM 1-NPN, 20 mM Tris-HCl pH 7.4, read-out: K1-NPN binding constant of DabiOBP5 and 1-NPN).
As to `CCCCCCCCCO` [1-Nonanol], the “OBP14 F.D. (%) fluorescence displacement percent” value in the test on DabiOBP14 (setting [1]) is 29.98%. For the same compound, at DabiOBP5 (setting [2]), the inhibition at 20 µM came to 39.6%.
On the same counts, the results for `CCCCCCCCO` [1-Octanol] are 35.51% and 35%.
On to `CCCCCCCCCCCO` [1-Undecanol], for which, on DabiOBP5 (setting [2]), the inhibition at 20 µM was 37.7%.
Same read-out and setting: the same measure for `C=CCCCCCCCCC` [1-Undecene]: 17.4%.
Turning to `CCCCCC(C)O` (stereo not drawn) [2-Heptanol], in the test with DabiOBP14 (setting [1]), the “OBP14 F.D. (%) fluorescence displacement percent” value was found to be 24.86%. Further, the inhibition at 20 µM on DabiOBP5 (setting [2]) is 13.9%.
On the same counts, the results for `CCCCCC(C)=O` [2-Heptanone] are 33.53% and 36.5%.
The matching figures for `CCCCC(C)=O` [2-Hexanone]: 27.57% and 43.1%.
On the same counts, the results for `CCC(C)CO` (stereo not drawn) [2-Methyl-1-butanol] are 27.78% and 36%.
In the case of `CCCCCCCCCCCC(C)=O` [2-Tridecanone], in the test with DabiOBP14 (setting [1]), the “OBP14 F.D. (%) fluorescence displacement percent” value turned out to be 32.61%. Further, the inhibition at 20 µM at DabiOBP5 (setting [2]) came to 35.6%.
`CC1=CCC2C(C1)C2(C)C` (stereo not drawn) [3-Carene]: in the test on DabiOBP14 (setting [1]), the “OBP14 F.D. (%) fluorescence displacement percent” value is 29.92%. Also, the inhibition at 20 µM at DabiOBP5 (setting [2]) turned out to be 41.6%.
With `CCCC(=O)CC` [3-Hexanone], the “OBP14 F.D. (%) fluorescence displacement percent” value in the test with DabiOBP14 (setting [1]) was determined as 36.58%. The inhibition at 20 µM at DabiOBP5 (setting [2]) is 25.3%.
The matching figures for `CC(C)=CCO` [3-Methyl-2-buten-1-ol]: 34.58% and 37%.
On the same counts, the results for `CCCCC=CCCO` [3-Octenol] are 31.31% and 25.1%.
On the same counts, the results for `CC(C)=CCCC(C)O` (stereo not drawn) [6-Methyl-5-hepten-2-ol] are 33.49% and 41.4%.
Turning to `CC(=O)CCC=C(C)C` [6-Methyl-5-hepten-2-one], the “OBP14 F.D. (%) fluorescence displacement percent” value with DabiOBP14 (setting [1]) was 34.39%. For the same compound, the inhibition at 20 µM on DabiOBP5 (setting [2]) is 40.3%.
For `CC(=O)c1ccccc1` [Acetophenone], in the test with DabiOBP14 (setting [1]), the “OBP14 F.D. (%) fluorescence displacement percent” value is given as 36.22%. The inhibition at 20 µM at DabiOBP5 (setting [2]) is 38.8%.
In the case of `CCCCCOC(C)=O` [Amyl acetate], the “OBP14 F.D. (%) fluorescence displacement percent” value in the test on DabiOBP14 (setting [1]) is recorded as 25.00%. Moreover, at DabiOBP5 (setting [3]), the “OBP5 F.D. (%) fluorescence displacement percent” value worked out at 26.33%.
As to `O=Cc1ccccc1` [Benzaldehyde], the “OBP14 F.D. (%) fluorescence displacement percent” value in the test on DabiOBP14 (setting [1]) worked out at 38.35%. Also, the inhibition at 20 µM at DabiOBP5 (setting [2]) amounted to 36.8%.
For `O=C(OCc1ccccc1)c1ccccc1` [Benzyl benzoate], the “OBP14 F.D. (%) fluorescence displacement percent” value in the test with DabiOBP14 (setting [1]) worked out at 49.39%. For the same compound, the inhibition at 20 µM at DabiOBP5 (setting [2]) amounted to 47.8%.
Take `CCCCOC(C)=O` [Butyl acetate]: the “OBP14 F.D. (%) fluorescence displacement percent” value in the test with DabiOBP14 (pH 7.4) was 0.16%. In addition, the inhibition at 20 µM at DabiOBP5 (setting [2]) came out at 31.6%.
`O=C(NC(=O)c1ccccc1Cl)Nc1ccc(Cl)cc1` [Chlorbenzuron]: in the test with DabiOBP14 (setting [1]), the “OBP14 F.D. (%) fluorescence displacement percent” value is reported as 47.43%. Also, the “OBP5 F.D. (%) fluorescence displacement percent” value on DabiOBP5 (setting [3]) stood at 39.11%.
Regarding `CCOCn1c(-c2ccc(Cl)cc2)c(C#N)c(Br)c1C(F)(F)F` [Chlorfenapyr], the Ki at DabiOBP14 (listed as chlorfenapyr) was below 13 µM; at DabiOBP14, 8.41 ± 0.42 µM; on DabiOBP5 it was 8.16 ± 0.55 µM; on DabiOBP5 (listed as chlorfenapyr) it was below 13 µM. For the same compound, in the test with DabiOBP14 (setting [1]), the “OBP14 F.D. (%) fluorescence displacement percent” value was 60.84%. Also, the inhibition at 20 µM on DabiOBP5 (setting [4]) turned out to be 62%.
As to `CCOP(=S)(OCC)Oc1nc(Cl)c(Cl)cc1Cl` [Chlorpyrifos], the Ki is below 13 µM on DabiOBP14 (listed as chlorpyrifos), 4.62 ± 0.46 µM at DabiOBP14, 5.92 ± 0.48 µM at DabiOBP5 and below 13 µM on DabiOBP5 (listed as chlorpyrifos). In the test with DabiOBP14 (setting [1]), the “OBP14 F.D. (%) fluorescence displacement percent” value was 72.41%. Besides, the inhibition at 20 µM at DabiOBP5 (setting [4]) stood at 66.1%.
Regarding `CCCCCCCCCC=O` [Decanal], the “OBP14 F.D. (%) fluorescence displacement percent” value with DabiOBP14 (setting [1]) amounted to 21.35%. In addition, the inhibition at 20 µM at DabiOBP5 (setting [2]) turned out to be 29.1%.
For the compound `CCCCCCCCCC` [Decane], the inhibition at 20 µM on DabiOBP5 (setting [2]) was 20.2%.
With `CCCCCCCCCCOC(C)=O` [Decyl acetate], the “OBP14 F.D. (%) fluorescence displacement percent” value in the test with DabiOBP14 (setting [1]) came to 15.15%. Also, on DabiOBP5 (setting [2]), the inhibition at 20 µM turned out to be 26.2%.
Take `CC1(C)[C@H](C(=O)O[C@H](C#N)c2cccc(Oc3ccccc3)c2)[C@@H]1C=C(Br)Br` [Deltamethrin]: the “OBP14 F.D. (%) fluorescence displacement percent” value in the test with DabiOBP14 (setting [1]) is given as 38.21%. At DabiOBP5 (setting [2]), the inhibition at 20 µM is 28.5%.
For `O=C(NC(=O)c1c(F)cccc1F)Nc1ccc(Cl)cc1` [Diflubenzuron], in the test on DabiOBP14 (setting [1]), the “OBP14 F.D. (%) fluorescence displacement percent” value was determined as 30.33%. Moreover, the inhibition at 20 µM on DabiOBP5 (setting [2]) is 21.4%.
`CCCCCCCCCCCC=O` [Dodecanal]: the “OBP14 F.D. (%) fluorescence displacement percent” value in the test with DabiOBP14 (setting [1]) is on record as 3.43%. The inhibition at 20 µM at DabiOBP5 (setting [2]) is 30.6%.
The matching figures for `CCCCCCCCCCCC` [Dodecane]: 17.71% and 31.9%.
Regarding `CCC/C=C/CO` [E2-Hexen-1-ol], the “OBP14 F.D. (%) fluorescence displacement percent” value in the test on DabiOBP14 (setting [1]) was found to be 18.64%. Also, at DabiOBP5 (setting [3]), the “OBP5 F.D. (%) fluorescence displacement percent” value was 36.50%.
Take `CCC/C=C/C=O` [E2-Hexenal]: the “OBP14 F.D. (%) fluorescence displacement percent” value in the test on DabiOBP14 (setting [1]) worked out at 32.34%. On DabiOBP5 (setting [3]), the “OBP5 F.D. (%) fluorescence displacement percent” value came out at 33.10%.
With `CCCCCCCCC` [Nonane], the inhibition at 20 µM at DabiOBP5 (setting [2]) is 22.2%.
Same read-out and setting: then `CCCCCCCC` [Octane], with 27.9%; and `CCCCCCCCCCCCC` [Tridecane], with 5.52%.
Regarding `C/C1=C\CC/C(C)=C/CC(C)(C)/C=C/C1` [α-Caryophyllene], the “OBP5 F.D. (%) fluorescence displacement percent” value at DabiOBP5 (setting [3]) worked out at 15.42%.
On to `C=C1CC/C=C(\C)CC[C@@H]2[C@@H]1CC2(C)C` [β-Caryophyllene], for which the inhibition at 20 µM at DabiOBP5 (setting [2]) is 16.3%.

The term Ki denotes the dissociation constant of the complex between target and ligand, obtained from inhibition or displacement.
